Source: ChEMBL document CHEMBL1201862, “PubChem BioAssay data set” (2004)
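Results reflect a 48-hour exposure of cells in 96-well plates to compound at five concentrations. Abbreviation: GI50, concentration required for 50% inhibition of growth.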 The source made the active and inactive calls. No stated cut-off is given here; in the data, active = GI50 up to about 1.1 µM and inactive = higher.

Columns and labels:
Assay in all cases: NCI anticancer screen, dose series, 48 h
NCI-H226 = tested on: NCI-H226
NCI-H522 = tested on: NCI-H522
SNB-19 = tested on: SNB-19
CCRF-CEM = tested on: CCRF-CEM
UACC-62 = tested on: UACC-62
786-0 = tested on: 786-0
RXF 393 = tested on: RXF 393
UO-31 = tested on: UO-31
SNB-75 = tested on: SNB-75
A498 = tested on: A498
HT-29 = tested on: HT-29
HCT-15 = tested on: HCT-15
SN12C = tested on: SN12C
MOLT-4 = tested on: MOLT-4
A549 = tested on: A549
NCI-H23 = tested on: NCI-H23
SW-620 = tested on: SW-620

SMILES | GI50 (NCI-H226) | GI50 (NCI-H522) | GI50 (SNB-19) | GI50 (CCRF-CEM) | GI50 (UACC-62) | GI50 (786-0) | GI50 (RXF 393) | GI50 (UO-31) | GI50 (SNB-75) | GI50 (A498) | GI50 (HT-29) | GI50 (HCT-15) [µM] | GI50 (SN12C) | GI50 (MOLT-4) | GI50 (A549) | GI50 (NCI-H23) | GI50 (SW-620)
CC1(C)C=N[N+]2(C)C3C=CC(CC3)C12 (stereo not given) | > 100 µM (inactive) | > 100 µM (inactive) | > 100 µM (inactive) | > 100 µM (inactive) | > 100 µM (inactive) | > 100 µM (inactive) | > 100 µM (inactive) | > 100 µM (inactive) | > 100 µM (inactive) | > 100 µM (inactive) | > 100 µM (inactive) | > 100 | > 100 µM (inactive) | > 100 µM (inactive) | > 100 µM (inactive) | > 100 µM (inactive) | –
Cc1ccc(S(=O)(=O)N(/N=C/C=C/c2ccccc2)c2nnc(-c3ccccc3)c(-c3ccccc3)n2)cc1 | 18.3 µM (inactive) | 15.9 µM (inactive) | 71.9 µM (inactive) | 21.9 µM (inactive) | 26.7 µM (inactive) | 20.8 µM (inactive) | 19 µM (inactive) | 5.86 µM (inactive) | 22.4 µM (inactive) | 36.8 µM (inactive) | 0.619 µM (active) | 25.6 | 38.4 µM (inactive) | 12.9 µM (inactive) | 16.9 µM (inactive) | 15.8 µM (inactive) | 30.4 µM (inactive)
CCCCNC(=S)N/C=C1\C(=O)Nc2ccccc2C1=O | > 10 µM (inactive) | – | > 10 µM (inactive) | > 10 µM (inactive) | > 10 µM (inactive) | > 10 µM (inactive) | > 10 µM (inactive) | > 10 µM (inactive) | – | > 10 µM (inactive) | > 10 µM (inactive) | > 10 | > 10 µM (inactive) | > 10 µM (inactive) | > 10 µM (inactive) | > 10 µM (inactive) | > 10 µM (inactive)
CC(=O)/C(=C\c1cccc([N+](=O)[O-])c1)C(=O)Nc1ccccc1C | > 100 µM (inactive) | > 100 µM (inactive) | 94.4 µM (inactive) | 31.2 µM (inactive) | 59.2 µM (inactive) | > 100 µM (inactive) | > 100 µM (inactive) | > 100 µM (inactive) | – | – | 95.1 µM (inactive) | > 100 | > 100 µM (inactive) | 39.5 µM (inactive) | > 100 µM (inactive) | > 100 µM (inactive) | > 100 µM (inactive)
CSc1snc2sc3c(Cl)nnnc3c12 | – | – | 15.8 µM (inactive) | 2.12 µM (inactive) | 14.2 µM (inactive) | 15.9 µM (inactive) | 12.3 µM (inactive) | 13 µM (inactive) | 11.5 µM (inactive) | 15 µM (inactive) | 4.84 µM (inactive) | 8.15 | 15.3 µM (inactive) | 2.98 µM (inactive) | 17.9 µM (inactive) | 18.3 µM (inactive) | 3.8 µM (inactive)
O=C1CCC[C@]2(CCCC(=O)N2)C1 | > 100 µM (inactive) | > 100 µM (inactive) | > 100 µM (inactive) | > 100 µM (inactive) | > 100 µM (inactive) | > 100 µM (inactive) | > 100 µM (inactive) | > 100 µM (inactive) | 77.4 µM (inactive) | > 100 µM (inactive) | > 100 µM (inactive) | > 100 | > 100 µM (inactive) | > 100 µM (inactive) | > 100 µM (inactive) | > 100 µM (inactive) | > 100 µM (inactive)
O=S(=O)(O)C(O)/C=C/c1ccccc1 (stereo not given) | > 100 µM (inactive) | > 100 µM (inactive) | > 100 µM (inactive) | 52.5 µM (inactive) | > 100 µM (inactive) | > 100 µM (inactive) | > 100 µM (inactive) | > 100 µM (inactive) | > 100 µM (inactive) | > 100 µM (inactive) | > 100 µM (inactive) | > 100 | > 100 µM (inactive) | > 100 µM (inactive) | > 100 µM (inactive) | > 100 µM (inactive) | > 100 µM (inactive)
O=C1NC(=O)C(C(=O)C(=O)Nc2ccc(Cl)cc2Cl)C(=O)N1 | – | – | > 100 µM (inactive) | > 100 µM (inactive) | > 100 µM (inactive) | > 100 µM (inactive) | – | > 100 µM (inactive) | – | > 100 µM (inactive) | – | > 100 | – | > 100 µM (inactive) | > 100 µM (inactive) | – | > 100 µM (inactive)
COc1cccc(/C=C(\NC(C)=O)c2nc3cc(Cl)ccc3[nH]2)c1 | – | > 100 µM (inactive) | > 100 µM (inactive) | > 100 µM (inactive) | > 100 µM (inactive) | > 100 µM (inactive) | > 100 µM (inactive) | > 100 µM (inactive) | – | – | > 100 µM (inactive) | > 100 | > 100 µM (inactive) | > 100 µM (inactive) | > 100 µM (inactive) | > 100 µM (inactive) | > 100 µM (inactive)
O=C(Nc1cccc(Cc2cccc(NC(=O)c3ccccc3)c2)c1)c1ccccc1 | 29 µM (inactive) | 25.2 µM (inactive) | 25.4 µM (inactive) | > 100 µM (inactive) | 23.8 µM (inactive) | 26.9 µM (inactive) | 14.8 µM (inactive) | 12.7 µM (inactive) | 10.5 µM (inactive) | 17.8 µM (inactive) | > 100 µM (inactive) | 89.3 | 19.5 µM (inactive) | > 100 µM (inactive) | 24.8 µM (inactive) | 33.1 µM (inactive) | > 100 µM (inactive)
O=C(O)CNc1cc(-c2ccccc2)nc(NCC(=O)O)n1 | > 100 µM (inactive) | > 100 µM (inactive) | > 100 µM (inactive) | > 100 µM (inactive) | > 100 µM (inactive) | > 100 µM (inactive) | – | > 100 µM (inactive) | > 100 µM (inactive) | – | > 100 µM (inactive) | > 100 | > 100 µM (inactive) | > 100 µM (inactive) | > 100 µM (inactive) | > 100 µM (inactive) | > 100 µM (inactive)
Cc1ccc(-c2cc(-c3ccco3)c(C#N)c(=O)n2C2OC(OC(=O)c3ccccc3)C(OC(=O)c3ccccc3)C2OC(=O)c2ccccc2)cc1 (stereo not given) | – | 62.8 µM (inactive) | – | > 100 µM (inactive) | > 100 µM (inactive) | 81.3 µM (inactive) | 24.9 µM (inactive) | > 100 µM (inactive) | > 100 µM (inactive) | > 100 µM (inactive) | > 100 µM (inactive) | > 100 | > 100 µM (inactive) | > 100 µM (inactive) | > 100 µM (inactive) | – | > 100 µM (inactive)
O=C(COc1ccc2c(=O)cc(-c3ccccc3)oc2c1)N1CCN(c2ccccc2)CC1 | 72.4 µM (inactive) | 18.8 µM (inactive) | 36.6 µM (inactive) | 24.7 µM (inactive) | 57.9 µM (inactive) | 41 µM (inactive) | 16.7 µM (inactive) | 19.8 µM (inactive) | 27.5 µM (inactive) | > 10 µM (inactive) | – | 41.2 | 41.4 µM (inactive) | 11.1 µM (inactive) | 39.2 µM (inactive) | 46.1 µM (inactive) | 83.8 µM (inactive)
CSc1nc(NC2OC(COC(C)=O)C(OC(C)=O)C(OC(C)=O)C2OC(C)=O)c(/N=C/C=N/c2c(NC3OC(COC(C)=O)C(OC(C)=O)C(OC(C)=O)C3OC(C)=O)nc(SC)[nH]c2=O)c(=O)[nH]1 (stereo not given) | – | > 100 µM (inactive) | > 100 µM (inactive) | – | > 100 µM (inactive) | > 100 µM (inactive) | > 100 µM (inactive) | > 100 µM (inactive) | > 100 µM (inactive) | > 100 µM (inactive) | > 100 µM (inactive) | > 100 | > 100 µM (inactive) | – | > 100 µM (inactive) | > 100 µM (inactive) | > 100 µM (inactive)
CC1(Br)C(=O)NC(=O)N(C2CC(N=[N+]=[N-])C(CO)O2)C1N=[N+]=[N-] (stereo not given) | – | 23.1 µM (inactive) | > 100 µM (inactive) | 53.1 µM (inactive) | > 100 µM (inactive) | > 100 µM (inactive) | 91.8 µM (inactive) | > 100 µM (inactive) | > 100 µM (inactive) | > 100 µM (inactive) | > 100 µM (inactive) | > 100 | > 100 µM (inactive) | > 100 µM (inactive) | > 100 µM (inactive) | > 100 µM (inactive) | > 100 µM (inactive)
COc1ccc(/C=c2/sc3n(c2=O)NC2(CCC(C)CC2)NN=3)cc1 (stereo not given) | > 100 µM (inactive) | > 100 µM (inactive) | > 100 µM (inactive) | > 100 µM (inactive) | > 100 µM (inactive) | > 100 µM (inactive) | > 100 µM (inactive) | > 100 µM (inactive) | > 100 µM (inactive) | – | > 100 µM (inactive) | – | > 100 µM (inactive) | > 100 µM (inactive) | > 100 µM (inactive) | > 100 µM (inactive) | > 100 µM (inactive)
C=CCC(C(=O)OC)C1(C(=O)OC)c2[nH]c3ccccc3c2CCN1Cc1ccccc1 (stereo not given) | – | > 100 µM (inactive) | > 100 µM (inactive) | 29.8 µM (inactive) | 74.6 µM (inactive) | 19 µM (inactive) | 33 µM (inactive) | 53.3 µM (inactive) | > 100 µM (inactive) | 54.6 µM (inactive) | > 100 µM (inactive) | > 100 | > 100 µM (inactive) | > 100 µM (inactive) | 58.9 µM (inactive) | > 100 µM (inactive) | > 100 µM (inactive)
CNCC(=O)Nc1ccc2c(c1)C(=O)c1ccc(NC(=O)CNC)cc1C2=O | 7.57 µM (inactive) | 1.59 µM (inactive) | – | 2.74 µM (inactive) | 10.3 µM (inactive) | 4.42 µM (inactive) | 7.31 µM (inactive) | 11.8 µM (inactive) | 13.6 µM (inactive) | 14.9 µM (inactive) | 4.42 µM (inactive) | 7.62 | 3.1 µM (inactive) | 2.52 µM (inactive) | 11.2 µM (inactive) | 13.4 µM (inactive) | 2.56 µM (inactive)
